Source: ChEMBL document CHEMBL3525933 (Drug Metab Dispos, 2012)

Key:
Type in all cases: ADME, organism-based
[1] = Drug excretion in conventional Wistar rat feces treated with mangiferin at 400 mg/kg, po administered as single dose by HPLC-DAD analysis; design: dose 400 mg/kg, route oral; settings: in vivo
Rattus norvegicus = species on record: Rattus norvegicus; assay: Drug retention time in Wistar rat by HPLC-DAD analysis
[2] = Drug excretion in streptozotocin-induced diabetic Wistar rat feces treated with mangiferin at 400 mg/kg, po administered as single dose by HPLC-DAD analysis; design: dose 400 mg/kg, route oral; settings: in vivo
[3] = Drug excretion in conventional Wistar rat urine treated with mangiferin at 400 mg/kg, po administered as single dose by HPLC-DAD analysis; design: dose 400 mg/kg, route oral; settings: in vivo
[4] = Drug excretion in streptozotocin-induced diabetic Wistar rat urine treated with mangiferin at 400 mg/kg, po administered as single dose by HPLC-DAD analysis; design: dose 400 mg/kg, route oral; settings: in vivo

## O=c1c2cc(O)c(O)cc2oc2cc(O)cc(O)c12
[1]
  Drug excretion: metabolite_detected
Rattus norvegicus
  Retention_time: 36 min
[2]
  Drug excretion: metabolite_detected
[3]
  Drug excretion: metabolite_detected
[4]
  Drug excretion: metabolite_detected
